The values that follow come from paper PMC7993375, “Discovery of novel quinoline-based analogues of combretastatin A-4 as tubulin polymerisation inhibitors with apoptosis inducing activity and potent anticancer effect” (Journal of Enzyme Inhibition and Medicinal Chemistry, 2021).

Assay [1] deals with bovine brain tubulin. The assay is described as follows: Tubulin polymerisation assay. The class given is biochemical. The conditions noted are these: Tubulin was at 10 µM; read-out: Tubulin assembly IC50 (inhibition of tubulin polymerisation). The protocol: The assembly of purified bovine tubulin was monitored using a kit, BK006, purchased from Cytoskeleton Inc., (Denver, CO, USA). The assay was carried out in accordance with the manufacturer’s instructions using the standard assay conditions. Briefly, purified ([…]) in a buffer consisting of 80 mM PIPES (pH 6.9), 0.5 mM EGTA, 2 mM MgCl2, 1 mM GTP and 10% glycerol was incubated at 37 °C in the presence of either vehicle (2% (v/v) ddH2O), CA-4, or the quinoline compounds. Light is scattered proportionally to the concentration of polymerised microtubules in the assay. Therefore, tubulin assembly was monitored turbidimetrically at 340 nm in a Spectramax 340 PC spectrophotometer (Molecular Devices, Sunnyvale, CA, USA). The concentration that inhibits tubulin polymerisation by 50% (IC50) was determined using area under the curve (AUC). The AUC of the untreated controls were considered as 100% polymerisation. The IC50 value for each compound was computed using GraphPad Prism Software.

For assay [2], the system named is tubulin (colchicine binding site). The assay is described as follows: Colchicine site competitive binding assay ([3H]colchicine). The conditions noted are these: tubulin 1 µM, colchicine 5 µM. The protocol: The affinity of compounds 12c to colchicine binding site was determined using Colchicine Site Competitive Assay kit CytoDYNAMIX Screen15 (Cytoskeleton, Inc., Denver, CO, USA) using the standard protocol of the manufacturer to determine Ki. Biotin-labelled tubulin ([…], PerkinElmer, Waltham, MA) and the test compounds (positive control colchicine, negative control vinblastine, G-1, fluorescent G-1, or 2-ME) in a 96-well plate (final volume: 100 µL). After incubating for 2 h at 37 °C with gentle shaking, streptavidin-labelled yttrium SPA beads (80 µg in 20 µL reaction buffer, PerkinElmer, Waltham, MA) were added to each well and incubated for 30 min at 4 °C. The plates were then read on a scintillation counter (Packard Instrument, Topcount Microplate Reader) and the percentage of inhibition was calculated[50]^,[51].

Assay [3] relates to caspase-9. The assay is described as follows: Caspase-9 activation assay. The class given is cell-based, human. The protocol:
(§1) The level of the anti-apoptotic marker and apoptotic marker BAX were assessed using Bcl-2 Elisa kit and human Bax ELISA Kit purchased from Zymed laboratories, invitrogen and Cloud-Clone Crop. (Katy, TX, USA), respectively, following the manufacturer’s instructions. Briefly, Treated MCF-7 cell lysate with 250 nM of compound 12c were prepared, and equal amount of cell lysates were loaded and propped with specific antibodies. The samples were measured and analysed at 450 nm in ROBONEK P2000 ELISA reader. In Vitro Caspase-9 Activation Assay was performed using human active caspase-9 Invitrogen EIA kit according to the manufacturer’s instructions. Compound 12c at concentrations of 50 and 250 nM and CA-4 (50 nM) were prepared in dH2O up to a final volume of 50 µL/well followed by addition of 5 µL of active caspase-9. Following, the cells were mixed and 50 µL of the Master Mix was added to each well and allowed to react at 37 °C for 1 h. The fluorescence intensity of the test samples was recorded and analysed in a fluorescence plate reader at 400 nm excitation and 505 nm emissions. All experiments were conducted in triplicates.

The test system of assay [4] is anti-apoptotic protein Bcl-2. As to the kind of experiment: Bcl-2 ELISA, expression level in MCF-7 cells. The class given is cell-based, human. The conditions noted are these: MCF-7, 250 nM, 48 h. The protocol:
as §1
In general terms: In an ELISA, binding on a coated surface is turned into a signal by an enzyme label.

The subject of assay [5] is pro-apoptotic protein Bax. The assay is described as follows: Bax ELISA, expression level in MCF-7 cells. The class given is cell-based, human. The conditions noted are these: MCF-7, 250 nM, 48 h. The protocol: as §1
Assay [6] concerns MCF-7 cells. As to the kind of experiment: Wound healing assay. In kind it is cell-based, human. The protocol: MCF-7 were grown in 6-well plates for 24 h, and scratches were made using pipette tip and washed with PBS to remove non-adherent cell debris. Subsequently, the cells were treated with different concentrations of 12c for 24 h. The migrations across the wound area were photographed under a phase contrast microscopy.

Assay [7] relates to MCF-7, HL-60, HCT-116 and HeLa. The assay is described as follows: MTT cell viability assay, statements over all four cancer cell lines. The class given is cell-based, human. The conditions noted are these: Homo sapiens. The protocol: The four human tumour cell lines MCF-7, HCT-116, HL-60 and HeLa used in this study were obtained from the VACSERA (Giza, Egypt) cell culture unit that were originally acquired from ATCC (Manassas, VA, USA). All the human tumour cell lines were cultured in Dulbecco’s Modified Eagle’s Medium (DMEM) with 10% foetal bovine serum, 2 mM L-glutamine and 100 µg/mL penicillin/streptomycin. Cells were maintained at 37 °C in 5% CO2 in a humidified incubator. All cells were sub-cultured 3 times/week by trypsinisation using TrypLE Express (1X).
The quinoline compounds were evaluated for antiproliferative effect using the MTT viability assay of four cancer cell lines (MCF-7, HCT-116, HL-60 and HeLa) and normal breast cells MCF-10A to calculate the relative IC50 values for each compound. Cells were seeded in triplicate in 96-well plates at a density of 10 × 10^3 cells/ml in a total volume of 200 µl per well. 0.1% of DMSO was used as a vehicle control. Following, the cells were treated with 2 µl test compound (from stock solutions in ethanol) to furnish the concentration range of study, 1 nM to 50 µM, and re-incubated for a further 72 h. The culture medium was then removed, and the cells washed with 100 µL phosphate buffered saline (PBS) and 50 µL MTT added, to reach a final concentration of 1 mg/mL. Cells were incubated for 2 h in darkness at 37 °C. Solubilisation was begun through the addition of […] DMSO, and the cells maintained at room temperature in darkness for 20 min to ensure thorough colour diffusion before reading the absorbance. Plates were incubated for 72 h at 37 °C + 5% CO2. The MTT (5 mg/mL in PBS) was added and incubated for another 4 h, and the optical density was detected with a microplate reader at 570 nm. Results were expressed as percentage viability relative to vehicle control (100%). Dose response curves were plotted and IC50 values (concentration of drug resulting in 50% reduction in cell survival) were obtained using the commercial software package Prism (GraphPad Software, Inc., La Jolla, CA, USA). All the experiments were repeated in at least three independent experiments.

A word on the IC50: it is the concentration that gives 50% inhibition. On to `COc1ccc(/C=C\c2cc(OC)c(OC)c(OC)c2)cc1O` [CA-4, Combretastatin A-4], for which, in assay [1], the IC50 is […]. Besides, the “Colchicine binding, % inhibition of [3H]colchicine binding” value in assay [2] (1 µM drug) is given as 86 ± 0.9%; in assay [2] (5 µM drug), 97 ± 2%. Besides, the “increase in caspase-9 activation” value in assay [3] (MCF-7, 50 nM) is 14 fold.
As for `COc1cc(C2=NC(=Cc3cc4ccc(C)cc4nc3OC)C(=O)O2)cc(OC)c1OC` [Compound 12c, 4-[(2-Methoxy-7-methylquinolin-3-yl)methylene]-2–(3,4,5-trimethoxyphenyl) oxazol-5(4H)-one], the results for the IC50 in assay [1] and in assay [7] were 1210 nM and 10 to 42 nM, respectively. In addition, the “Colchicine binding, % inhibition of [3H]colchicine binding” value in assay [2] (1 µM drug) was 79 ± 2%; in assay [2] (5 µM drug) it was 87 ± 1%. In addition, in assay [4], the “expression level of the anti-apoptotic protein Bcl-2” value was “decreased”. Further, in assay [5], the “expression of the pro-apoptotic protein Bax” value is on record as “up-regulated”. Also, the “increase in caspase-9 activation” value is recorded as “about 8 fold” in assay [3] (MCF-7, 50 nM) and ~16 fold in assay [3] (MCF-7, 250 nM). In assay [6], the “MCF-7 cell migration into wound area” value is “significantly inhibited in a dose-dependent manner”.
